# Source: PubChem BioAssay (NCI)
# Several values for one entry are separate records, joined by “and”; a condition that tells them apart may be missing. Identical values can stand only once.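 Step 1: Grow cells in 96-well plates. Step 2: Expose to compound for 48 hours at 5 concentrations. Step 3: Interpolate endpoints linearly; if unreached, use highest concentration. At the GI50, growth is halved. Definition used: TGI = concentration required for complete inhibition of growth.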
# Tests used:
# Experiment in all cases: NCI-60 cell line screen, 48 h
# HCT-116 colon = test system: HCT-116 colon
# UACC-62 melanoma = test system: UACC-62 melanoma
# HS 578T breast = test system: HS 578T breast
# HOP-92 NSCLC = test system: HOP-92 NSCLC
# MCF7 breast = test system: MCF7 breast
# SK-MEL-5 melanoma = test system: SK-MEL-5 melanoma
# HCC-2998 colon = test system: HCC-2998 colon
# LOX IMVI melanoma = test system: LOX IMVI melanoma
# A549 NSCLC = test system: A549 NSCLC
# EKVX NSCLC = test system: EKVX NSCLC
# SF-539 CNS = test system: SF-539 CNS
# HL-60(TB) leukemia = test system: HL-60(TB) leukemia
# NCI-H460 lung = test system: NCI-H460 lung
# SW-620 colon = test system: SW-620 colon
# NCI-H522 lung = test system: NCI-H522 lung
# K-562 leukemia = test system: K-562 leukemia
# COLO 205 colon = test system: COLO 205 colon
# SK-OV-3 ovarian = test system: SK-OV-3 ovarian
# U251 CNS = test system: U251 CNS
# OVCAR-8 ovarian = test system: OVCAR-8 ovarian
# BT-549 breast = test system: BT-549 breast
# HCT-15 colon = test system: HCT-15 colon
# CAKI-1 renal = test system: CAKI-1 renal
# SF-295 CNS = test system: SF-295 CNS
# SNB-75 CNS = test system: SNB-75 CNS
# MOLT-4 leukemia = test system: MOLT-4 leukemia
# SF-268 CNS = test system: SF-268 CNS
# MALME-3M melanoma = test system: MALME-3M melanoma
# A498 renal = test system: A498 renal
# OVCAR-4 ovarian = test system: OVCAR-4 ovarian
# PC-3 prostate = test system: PC-3 prostate
# TK-10 renal = test system: TK-10 renal
# SK-MEL-28 melanoma = test system: SK-MEL-28 melanoma
# HT29 colon = test system: HT29 colon
# MDA-MB-435 = test system: MDA-MB-435
# ACHN renal = test system: ACHN renal
# M14 melanoma = test system: M14 melanoma
# HOP-62 NSCLC = test system: HOP-62 NSCLC
# MDA-MB-231 breast = test system: MDA-MB-231 breast
# NCI/ADR-RES ovarian = test system: NCI/ADR-RES ovarian
# CCRF-CEM leukemia = test system: CCRF-CEM leukemia
# 786-0 renal = test system: 786-0 renal
# KM12 colon = test system: KM12 colon
# SN12C renal = test system: SN12C renal
# UACC-257 melanoma = test system: UACC-257 melanoma
# RXF 393 renal = test system: RXF 393 renal
# MDA-N = test system: MDA-N
# SK-MEL-2 melanoma = test system: SK-MEL-2 melanoma
# NCI-H226 lung = test system: NCI-H226 lung
# SNB-19 CNS = test system: SNB-19 CNS
# OVCAR-5 ovarian = test system: OVCAR-5 ovarian
# IGROV1 ovarian = test system: IGROV1 ovarian
# UO-31 renal = test system: UO-31 renal
# DU-145 prostate = test system: DU-145 prostate
# NCI-H23 lung = test system: NCI-H23 lung
# OVCAR-3 ovarian = test system: OVCAR-3 ovarian
# RPMI-8226 leukemia = test system: RPMI-8226 leukemia
smiles,measurement,setting,value
CSC(SC)=C(C#N)C(=O)Nc1cccc(Cl)c1,TGI,HCT-116 colon,> 100 µM
same,TGI,UACC-62 melanoma,> 100 µM
same,TGI,HS 578T breast,> 100 µM
same,TGI,HOP-92 NSCLC,55.6 µM
same,TGI,MCF7 breast,> 100 µM
same,TGI,SK-MEL-5 melanoma,40.7 µM
same,TGI,HCC-2998 colon,> 100 µM
same,TGI,LOX IMVI melanoma,> 100 µM
same,TGI,A549 NSCLC,> 100 µM
same,TGI,EKVX NSCLC,> 100 µM
same,TGI,SF-539 CNS,> 100 µM
same,TGI,HL-60(TB) leukemia,35.2 µM
same,TGI,NCI-H460 lung,> 100 µM
same,TGI,SW-620 colon,> 100 µM
same,TGI,NCI-H522 lung,43.8 µM
same,TGI,K-562 leukemia,> 100 µM
same,TGI,COLO 205 colon,> 100 µM
same,TGI,SK-OV-3 ovarian,> 100 µM
same,TGI,U251 CNS,> 100 µM
same,TGI,OVCAR-8 ovarian,> 100 µM
same,TGI,BT-549 breast,> 100 µM
same,TGI,HCT-15 colon,> 100 µM
same,TGI,CAKI-1 renal,> 100 µM
same,TGI,SF-295 CNS,> 100 µM
same,TGI,SNB-75 CNS,> 100 µM
same,TGI,MOLT-4 leukemia,87.2 µM
same,TGI,SF-268 CNS,> 100 µM
same,TGI,MALME-3M melanoma,> 100 µM
same,TGI,A498 renal,> 100 µM
same,TGI,OVCAR-4 ovarian,> 100 µM
same,TGI,PC-3 prostate,> 100 µM
same,TGI,TK-10 renal,> 100 µM
same,TGI,SK-MEL-28 melanoma,> 100 µM
same,TGI,HT29 colon,> 100 µM
same,TGI,MDA-MB-435,> 100 µM
same,TGI,ACHN renal,> 100 µM
same,TGI,M14 melanoma,> 100 µM
same,TGI,HOP-62 NSCLC,> 100 µM
same,TGI,MDA-MB-231 breast,> 100 µM
same,TGI,NCI/ADR-RES ovarian,> 100 µM
same,TGI,CCRF-CEM leukemia,> 100 µM
same,TGI,786-0 renal,> 100 µM
same,TGI,KM12 colon,> 100 µM
same,TGI,SN12C renal,> 100 µM
same,TGI,UACC-257 melanoma,> 100 µM
same,TGI,RXF 393 renal,> 100 µM
same,TGI,MDA-N,> 100 µM
same,TGI,SK-MEL-2 melanoma,> 100 µM
same,TGI,NCI-H226 lung,> 100 µM
same,TGI,SNB-19 CNS,> 100 µM
same,TGI,OVCAR-5 ovarian,> 100 µM
same,TGI,IGROV1 ovarian,> 100 µM
CNc1nnc(CCCCCCCCc2nnc(NC)o2)o1,TGI,HCT-116 colon,41.9 µM
same,TGI,HOP-92 NSCLC,> 100 µM
same,TGI,MCF7 breast,38.3 µM
same,TGI,SK-MEL-5 melanoma,> 100 µM
same,TGI,LOX IMVI melanoma,38.5 µM
same,TGI,A549 NSCLC,> 100 µM
same,TGI,EKVX NSCLC,> 100 µM
same,TGI,SF-539 CNS,> 100 µM
same,TGI,HL-60(TB) leukemia,> 100 µM
same,TGI,NCI-H460 lung,> 100 µM
same,TGI,SW-620 colon,> 100 µM
same,TGI,K-562 leukemia,> 100 µM
same,TGI,COLO 205 colon,> 100 µM
same,TGI,SK-OV-3 ovarian,> 100 µM
same,TGI,UO-31 renal,> 100 µM
same,TGI,DU-145 prostate,> 100 µM
same,TGI,U251 CNS,63.7 µM
same,TGI,OVCAR-8 ovarian,> 100 µM
same,TGI,BT-549 breast,> 100 µM
same,TGI,HCT-15 colon,> 100 µM
same,TGI,CAKI-1 renal,31.3 µM
same,TGI,SF-295 CNS,> 100 µM
same,TGI,SNB-75 CNS,> 100 µM
same,TGI,MOLT-4 leukemia,> 100 µM
same,TGI,NCI-H23 lung,> 100 µM
same,TGI,A498 renal,> 100 µM
same,TGI,OVCAR-4 ovarian,> 100 µM
same,TGI,PC-3 prostate,> 100 µM
same,TGI,TK-10 renal,> 100 µM
same,TGI,SK-MEL-28 melanoma,> 100 µM
same,TGI,HT29 colon,90.8 µM
same,TGI,MDA-MB-435,> 100 µM
same,TGI,ACHN renal,> 100 µM
same,TGI,M14 melanoma,> 100 µM
same,TGI,HOP-62 NSCLC,78 µM
same,TGI,MDA-MB-231 breast,> 100 µM
same,TGI,NCI/ADR-RES ovarian,> 100 µM
same,TGI,CCRF-CEM leukemia,43 µM
same,TGI,OVCAR-3 ovarian,44.9 µM
same,TGI,786-0 renal,47 µM
same,TGI,KM12 colon,> 100 µM
same,TGI,SN12C renal,> 100 µM
same,TGI,UACC-257 melanoma,> 100 µM
same,TGI,RXF 393 renal,> 100 µM
same,TGI,MDA-N,> 100 µM
same,TGI,SK-MEL-2 melanoma,> 100 µM
same,TGI,NCI-H226 lung,> 100 µM
same,TGI,SNB-19 CNS,> 100 µM
same,TGI,OVCAR-5 ovarian,> 100 µM
same,TGI,IGROV1 ovarian,> 100 µM
CC(C)(C)c1ccc(C(O)CCCN2CCC(C(O)(c3ccccc3)c3ccccc3)CC2)cc1 (centres undefined),GI50,HOP-92 NSCLC,1.2 µM
same,TGI,HOP-92 NSCLC,2.6 µM
same,GI50,SK-MEL-5 melanoma,1.59 µM and 13.8 µM
same,TGI,SK-MEL-5 melanoma,2.93 µM and 23.5 µM
same,GI50,LOX IMVI melanoma,1.5 µM
same,TGI,LOX IMVI melanoma,2.82 µM
same,GI50,EKVX NSCLC,1.37 µM
same,TGI,EKVX NSCLC,2.77 µM
same,GI50,HL-60(TB) leukemia,2.16 µM
same,TGI,HL-60(TB) leukemia,3.97 µM
same,GI50,NCI-H460 lung,1.6 µM and 14.6 µM
same,TGI,NCI-H460 lung,2.95 µM and 21.5 µM
same,GI50,NCI-H522 lung,1.83 µM and 13.6 µM
same,TGI,NCI-H522 lung,3.31 µM and 21.2 µM
same,GI50,K-562 leukemia,2.18 µM
same,TGI,K-562 leukemia,5.14 µM
same,TGI,COLO 205 colon,2.52 µM and 21.2 µM
same,GI50,MOLT-4 leukemia,2.16 µM
same,TGI,MOLT-4 leukemia,5.32 µM
same,GI50,SF-268 CNS,1.57 µM
same,TGI,SF-268 CNS,2.92 µM
same,TGI,MALME-3M melanoma,3.03 µM and 23.7 µM
same,GI50,OVCAR-4 ovarian,1.44 µM
same,TGI,OVCAR-4 ovarian,2.75 µM
same,GI50,PC-3 prostate,1.61 µM
same,GI50,SK-MEL-28 melanoma,1.72 µM and 13.9 µM
same,TGI,SK-MEL-28 melanoma,3.11 µM and 19.2 µM
same,TGI,HT29 colon,2.23 µM and 20.9 µM
same,GI50,ACHN renal,1.67 µM
same,TGI,ACHN renal,3.03 µM
same,GI50,M14 melanoma,1.7 µM and 13.5 µM
same,TGI,M14 melanoma,3.21 µM and 18.4 µM
same,GI50,RPMI-8226 leukemia,1.94 µM
same,TGI,RPMI-8226 leukemia,5.49 µM
same,GI50,CCRF-CEM leukemia,2 µM
same,TGI,CCRF-CEM leukemia,5.8 µM
same,GI50,UACC-257 melanoma,1.4 µM and 13.2 µM
same,TGI,UACC-257 melanoma,2.85 µM and 18.2 µM
same,GI50,RXF 393 renal,1.08 µM
same,TGI,RXF 393 renal,2.27 µM
same,GI50,MDA-N,23.7 µM
same,TGI,MDA-N,42.6 µM
